# Key:
# [1] = test system: pygmy rabbits (Brachylagus idahoensis); experiment: Two-choice feeding trial: single monoterpene diet vs monoterpene mixture diet; assay type: in vivo; details: for percentage of single monoterpene in the diet relative to monoterpene mixture: pygmy rabbits
# [2] = test system: mountain cottontails (Sylvilagus nuttallii); experiment: as above; assay type: in vivo
# digestive enzyme = details: in a generalist more than in a specialist avian folivore; ref Kohl et al. 2015; cited from earlier work
Structure (SMILES),proportion consumed by pygmy rabbits relative to cottontails ([1]; pygmy rabbits vs mountain cottontails),percentage of single monoterpene in the diet relative to monoterpene mixture [1],amount of monoterpene mixture consumed relative to single monoterpene diet [2],effect on digestive enzyme activity (digestive enzyme),amount of single monoterpene diet consumed relative to monoterpene mixture [2]
CC12CCC(CC1=O)C2(C)C (centres unmarked) [camphor],twice,twice,twice,reduced digestive enzyme activity,–
C=C1C2CCC(C2)C1(C)C (centres unmarked) [camphene],–,–,–,–,more than five times
"CC12CCC(CC1)C(C)(C)O2 [1,8-cineole]",–,twice,–,–,24 times
C=C1CCC2CC1C2(C)C (stereo not drawn) [β-pinene],–,–,three times,–,–
